Measured values taken from patent US4298594A, “Xenobiotic delivery vehicles, method of forming them and method of using them” (Arthur D. Little, Inc., priority 1980, dated 1981).
“Also recorded” adds a separate entry of the source. Values belong to the compound of their own block, whether it stands above or below them.

Experiments:
[1] = affinity for and efflux of estradiol undecanoate from vesicular and nonvesicular microreservoirs; type: physicochemical
Protocol: The resulting liquid was sonicated at 40° C. for 20 minutes under a nitrogen atmosphere and passed down a Sepharose 4B Column. […] The material in the void volume of the column consisted of the nonvesicular form, whereas the material in the internal volume consisted of the vesicular form.

[2] = cited from earlier work
[3] = tissue distribution of free imidocarb and microreservoir-borne imidocarb; type: in vivo, rats; settings: 4 hours after injection
Description: Various tissues, such as muscle, spleen, liver and kidney, were taken from the animals. These tissues were combusted in a Searle combustion apparatus and the resulting ^14 CO2 was collected and counted for radioactivity.

[4] = plasma kinetics of imidocarb in rats, tail vein injection; type: in vivo; settings: 24 hours (FIG. 24)
Protocol: Plasma samples were taken at various time points and the amount of imidocarb in these samples was determined by measurements of their radio-activity.

[5] = binding of adriamycin to microreservoirs; type: physicochemical
Protocol: With this 2 mg (3.45 μmoles) of adriamycin was used. In the five samples, the amount of phosphatidic acid in the total lipid constituent was varied from zero to 25%. […] The aqueous suspensions were each sonicated at 52° C. for 15 minutes. Each sample was passed down through a 2.5×50 cm Sephadex G-50 gel column to separate free and bound adriamycin.
2875 μmoles of purified soybean phosphatidyl chloine (specific activity 2296 ^3 H dpm/μmole) 720 μmoles of soybean phosphatidic acid and 720 μmoles of cholesteryl oleate (specific activity of 3638 ^14 C dpm/μmole) were dissolved in choloroform and taken to dryness by pumping overnight against a vacuum. The resulting solid material was hydrated with 20 ml of 10 mM of trihydroxymethylamine (pH 9.1) and the liquid was sonicated at 52° C. under a nitrogen atmosphere for 15 minutes. The pH of the solution was lowered to 7.2 and then it was centrifuged for one hour at 100,000 g. 34.9 mg of adriamycin was added to the clear supernatant and it was then allowed to incubate for 30 minutes at room temperature. After this incubation, the ionic strength of the solution was increased to 0.154 M NaCl; and it was passed down a 4.3×37 cm G-50 Sephadex G-50 gel column using 0.154 M NaCl and 10 mM trihydroxymethylamine as the eluting solvent.

[6] = system: normal mice; test: toxicity of adriamycin in normal mice, survival; type: in vivo; settings: 4 mg/kg ip daily for five days, six mice; listed as free adriamycin
Protocol: Two dosages levels of the drug were chosen--4 mg/kg and 2 mg/kg. In each case, six normal mice received the injections each day for five days and then they were observed thereafter to determine the number of survivors. The results are plotted in FIG. 16.

[7] = system: L1210 leukemic cells; test: chemotherapy of L1210 leukemic mice with adriamycin, survival; settings: 4 mg/kg ip, days 1 through 5; day 24; listed as free adriamycin
Protocol: 72 normal mice were each innoculated with 10^6 L1210 leukemic cells by intraperitoneal injection on day zero. […] The drug in all cases was also given by intraperitoneal injection and the dosages were repeated daily on days 1 through 5. The dosage levels chosen were 4 mg/kg, 2 mg/kg, 1 mg/kg and 0.5 mg/kg.

[8] = within two minutes after administration; cited from earlier work
[9] = in vivo; cited from earlier work
[10] = system: P388 tumor cells; settings: 4 mg/kg ip daily for 5 days
Protocol: A number of mice were injected intraperitoneally with 1×10^6 P388 tumor cells. […] One group of mice, used as a control, received no drug in any form. Five mice were used for each protocol and two different dosage levels, 4 mg/kg and 2 mg/kg, were used.

[11] = plasma kinetics of daunomycin in rats, intravenous
Protocol: A control sample of free daunomycin at the same concentration and in the same buffer was also prepared.
0.5 ml of blood was taken at various time points from each rat. The plasma was separated from the blood samples and assayed for daunomycin fusing fluorescence. The data thus obtained are plotted in FIG. 10 as a function of time after injection.

[12] = in vitro stability of microreservoirs and liposomes (optical density ratio A400/A600, thin layer chromatograms); type: physicochemical; settings: after sonication and centrifugation
Protocol: Both of the suspensions were then spun at 100,000 g for one hour to remove any undispersed lipid.
Aliquots of 4 ml of each sample were then placed into stoppered curvettes and the samples were incubated at 37° C. At various points in time optical densities of the two solutions at 400 nm and 600 nm were determined. […] Since both structures initially had essentially the same molecular size, the ratio of A400/A600 is an indication of any increase in the particle size due to the breakdown of the structural organization of the liposome.

[13] = system: L1210 leukemia system; settings: mouse; cited from earlier work
[14] = system: P388 leukemia system; settings: mouse; cited from earlier work

SMILES: CCCCCCCCCCC(=O)O[C@H]1CC[C@H]2[C@@H]3CCc4cc(O)ccc4[C@H]3CC[C@]12C [estradiol undecanoate]
efflux / retention of estradiol undecanoate ([1]; incubated with unsonicated egg phosphatidyl choline dispersion): remained associated with both forms of the microreservoirs
affinity for vesicular vs nonvesicular microreservoirs ([1]; ratio of estradiol undecanoate to cholesteryl oleate): higher affinity for the vesicular form of the microreservoirs than for the nonvesicular form
solubility in aqueous buffer / water [2]: essentially insoluble in water

tissue distribution, Kidney ([3]; kidney): 40,194 dpm/gram of tissue
tissue distribution, Liver ([3]; liver): 27,059 dpm/gram of tissue
tissue distribution, Muscle ([3]; muscle): 3,985 dpm/gram of tissue
tissue distribution, Spleen ([3]; spleen): 9,498 dpm/gram of tissue
imidocarb in the bloodstream after 24 hours [4]: virtually none
SMILES: O=C(Nc1cccc(C2=NCCN2)c1)Nc1cccc(C2=NCCN2)c1 [imidocarb]

SMILES: COc1cccc2c1C(=O)c1c(O)c3c(c(O)c1C2=O)C[C@@](O)(C(=O)CO)C[C@@H]3O[C@H]1C[C@H](N)[C@H](O)[C@H](C)O1 [adriamycin]
binding of adriamycin to the microreservoirs relative to daunomycin [5]: does not bind as strongly to the microreservoirs as does, for example, daunomycin
bound adriamycin vs amount of phosphatidic acid ([5]; 80 μmoles total phospholipid, 20 μmoles cholesteryl oleate, 2 mg adriamycin, pH 7.2): increases with increasing amounts of phosphatidic acid
phosphatidic acid content up to which bound adriamycin increases before levelling off ([5]; relative to total lipids): about 25 mole %
toxicity (survival at 30 days) [6]: highly toxic; also recorded: survival of only one mouse
solubility in aqueous buffer / water [2]: water soluble
therapeutic effect / survivors [7]: some therapeutic effect for a short period of time; also recorded: all of the control mice and those receiving the free adriamycin had succumbed to leukemia and/or the toxic effect of the drug

SMILES: COc1cccc2c1C(=O)c1c(O)c3c(c(O)c1C2=O)C[C@@](O)(C(C)=O)C[C@@H]3O[C@H]1C[C@H](N)[C@H](O)[C@H](C)O1 [daunomycin]
fraction left to reach the target tissue [8]: ~5%
fraction that has left the bloodstream within two minutes [8]: about 95%
toxicity [9]: known to be toxic, particularly since it tends to concentrate in the heart tissues
chemotherapeutic effect / toxicity (survivors) [10]: demonstrated a toxicity measurably greater than the tumor cells
presence in the bloodstream after 3 3/4 hours ([11]; printed "33/4 hours", 4 mg/kg iv): virtually absent from the bloodstream
concentration at 0.25 h ([11]; rat, in vivo, iv, 4 mg/kg): ~400 ng/mL
concentration at 1 h ([11]; rat, in vivo, iv, 10 mg/kg): ~500 ng/mL
concentration at 3 h ([11]; rat, in vivo, iv, 10 mg/kg): ~300 ng/mL
concentration at 6 h ([11]; rat, in vivo, iv, 10 mg/kg): ~140 ng/mL
degradation by thin layer chromatograms of the centrifugates [12]: no evidence of degradation

SMILES: CCCCC(=O)OCC(=O)C1(O)Cc2c(O)c3c(c(O)c2C(OC2CC(NC(=O)C(F)(F)F)C(O)C(C)O2)C1)C(=O)c1c(OC)cccc1C3=O (stereo not drawn) [AD 32, N-Trifluoroacetyladriamycin-14-Valerate]
antitumor activity [13]: significantly greater antitumor activity than adriamycin or daunomycin
solubility in aqueous buffer / water [2]: totally insoluble in an aqueous buffer
antitumor activity [14]: significantly greater antitumor activity than adriamycin or daunomycin
